The values that follow come from patent US20230226065A1, “ANTI-INFLAMMATORY COMPOSITIONS, METHODS AND USES THEREOF” (COMVITA LIMITED, priority 2020, published 2023).

Data set [1] relates to active MMP-9. Kind of data set: Gelatin gel zymography, active MMP-9 band. Format: biochemical. Conditions: active MMP-9 (~37 kDa band); densitometry vs no inhibitor; n=5. On the procedure: Novex™ 10% Zymogram Plus (Gelatin) Protein Gels (15 wells) were purchased from Thermo Fisher Scientific Inc. (Auckland, New Zealand). All chemicals required for the zymogram analysis were also purchased from Thermo Fisher, these include Novex™ Sharp Pre-stained Protein Standard, Novex Tris-Glycine SDS sample buffer, Novex Tris-Glycine SDS running buffer, Novex Zymogram renaturing buffer and Novex Zymogram developing buffer. […] Gelatin gel zymography was performed as an independent technique to confirm the inhibition of MMP-9 from 3,6,7-trimethyllumazine. This technique uses a non-reducing SDS-PAGE (sodium dodecyl sulfate polyacrylamide gel electrophoresis) gel embedded with gelatin. Proteins are migrated and separated during electrophoresis. The SDS is removed after electrophoresis and the gel is then incubated with essential cofactors required for enzymatic activity. The embedded gelatin can be digested by MMP-9, resulting in clear bands on a dark blue background after staining with Coomassie blue dyes. The gelatinase activity is represented by band densitometry, which can be assessed with image analysis software. […]
After incubation, the gelatin gel was rinsed with water for three times (5 min each) under gentle agitation. […] MMP-9 activities were analysed using densitometry on ImageJ Version 1.52a. […]

Data set [2] can be described thus: Simulated gastrointestinal digestion (SGF then SIF), HPLC retention of 3,6,7-trimethyllumazine. Type of data set: in vitro ADME. Conditions: for remaining amount of 3,6,7-trimethyllumazine: pure compound. Here is the method:
The simulated gastrointestinal digestion was carried out using a static model. The simulated gastric fluid (SGF) and the simulated intestinal fluid (SIF) were prepared in accordance with a global consensus protocol (Minekus et al 2014). The SGF has a pH 3 to mimic the fed-state of the stomach. When mixed with Manuka honey (or a honey solution), the final mixture contains 2000 U/mL of pepsin. The SIF has pH 7 to mimic the fed-state of the small intestine, containing 2 mg/mL of pancreatin (8×USP, or based on a protease activity of 200 U/mL) and 20 mM of porcine bile extract before use.
In the simulated gastric digestion, 2 g of Manuka honey was incubated in 2 mL of SGF at 37° C. under 95 rpm shaking for a period of 2 h (triplicates). At selected time points (0, 30, 60 and 120 min), a predetermined volume (0.1 mL) of the mixture was withdrawn for 3,6,7-trimethyllumazine analysis. The solution for analysis was kept on ice with an addition of 0.1 mL SIF (pH 7) to stop pepsin activity. As a control group, a pure 3,6,7-trimethyllumazine solution was treated in the same way for comparative purposes.
Following the 2 h gastric digestion, the resulting solution was mixed with SIF (pH 7) at a volume ratio of 1:1, to have a final mixture that contains 1 mg/mL of pancreatin and 10 mM of porcine bile extract. This mixture was incubated at 37° C. under 95 rpm shaking for 4 h (triplicates). At selected time points (0, 60, 120 and 240 min), a predetermined volume (0.1 mL) of the mixture was withdrawn for 3,6,7-trimethyllumazine concentration analysis. The pancreatin activity in the withdrawn solution was quenched by adding 5 mmol/L Pefabloc® (Egger et al 2019).
The gastric and intestinal digesta for 3,6,7-trimethyllumazine analysis was treated to remove insoluble fractions (e.g. pancreatin) before HPLC analysis. In brief, all samples were diluted with 0.1% formic acid and then centrifuged at 14,000 rpm for 10 min. Supernatant was taken for analysis. The amount of 3,6,7-trimethyllumazine at different time points was analysed using a reverse-phase HPLC system, which has been previously used to analyse 3,6,7-trimethyllumazine and leptosperin as reported in the literature (Bin Lin et al 2017). In brief, the samples were diluted 5 times in 0.1% v/v formic acid. A Hypersil GOLD column (150×2.1 mm, […]) was used as the stationary phase (25° C.), and the mobile phase will consist of 0.1% formic acid (phase A), and 80:20 acetonitrile: 0.1% formic acid (phase B). […] The signal of 3,6,7-trimethyllumazine was detected at 320 nm.

As for `Cc1nc2[nH]c(=O)n(C)c(=O)c2nc1C` [3,6,7-trimethyllumazine], the “percentage inhibition of gelatinase activity” value in data set [1] turned out to be 31%. Also, the “degradation during gastrointestinal digestion” value in data set [2] (50% (w/w) Manuka honey solutions or pure compound directly exposed to digestive media) was “No significant degradation”. Also, in data set [2] (from four Manuka honey samples, end of 2 h gastric plus 4 h intestinal digestion), the “initial amount recovered in the digesta” value is around 100%. Also, the “remaining amount of 3,6,7-trimethyllumazine” value in data set [2] (SGF, 0 h, mean ± SD, n=3) is listed as 682 ± 90 ng/mL; in data set [2] (SGF, 0.5 h), 703 ± 57 ng/mL; in data set [2] (SGF, 1 h) it was 728 ± 28 ng/mL; in data set [2] (SGF, 2 h) it was 688 ± 72 ng/mL; in data set [2] (SIF, 0 h), 736 ± 6 ng/mL; in data set [2] (SIF, 1 h) it was 740 ± 12 ng/mL. Moreover, the “remaining amount of 3,6,7-trimethyllumazine” value was 732 ± 10 ng/mL in data set [2] (SIF, 2 h) and 730 ± 3 ng/mL in data set [2] (SIF, 4 h).
